According to ChEMBL document CHEMBL1201862, “PubChem BioAssay data set” (2004):
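Step 1: Grow cells in 96-well plates. Step 2: Expose to compound for 48 hours at 5 concentrations. Step 3: Interpolate endpoints linearly; if unreached, use highest concentration. GI50 = concentration required for 50% inhibition of growth.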 Calls of active or inactive are those of the source. Rule as the data show it: active = GI50 up to about 1.1 µM and inactive = higher.

Experiments:
Experiment in all cases: NCI-60 cell line screen, 48 h
SK-MEL-2 = test system: SK-MEL-2
HOP-92 = test system: HOP-92
ACHN = test system: ACHN
M14 = test system: M14
CAKI-1 = test system: CAKI-1
TK-10 = test system: TK-10
U-251 = test system: U-251
DU-145 = test system: DU-145
SF-539 = test system: SF-539
Malme-3M = test system: Malme-3M
NCI-H460 = test system: NCI-H460
786-0 = test system: 786-0
OVCAR-8 = test system: OVCAR-8
COLO 205 = test system: COLO 205
NCI-H522 = test system: NCI-H522
PC-3 = test system: PC-3
A498 = test system: A498
MDA-MB-231 = test system: MDA-MB-231
SR = test system: SR
HL-60 = test system: HL-60
SK-MEL-28 = test system: SK-MEL-28
IGROV-1 = test system: IGROV-1
HT-29 = test system: HT-29
NCI-H23 = test system: NCI-H23
A549 = test system: A549
NCI/ADR-RES = test system: NCI/ADR-RES
SF-268 = test system: SF-268
NCI-H226 = test system: NCI-H226
RPMI-8226 = test system: RPMI-8226
SK-OV-3 = test system: SK-OV-3
K562 = test system: K562
CCRF-CEM = test system: CCRF-CEM
OVCAR-4 = test system: OVCAR-4
SK-MEL-5 = test system: SK-MEL-5
HCT-15 = test system: HCT-15
MOLT-4 = test system: MOLT-4
UO-31 = test system: UO-31
UACC-62 = test system: UACC-62
T47D = test system: T47D
SF-295 = test system: SF-295
MDA-N = test system: MDA-N
SW-620 = test system: SW-620
SNB-19 = test system: SNB-19
Hs-578T = test system: Hs-578T
BT-549 = test system: BT-549
SN12C = test system: SN12C
HCT-116 = test system: HCT-116
MDA-MB-435 = test system: MDA-MB-435
UACC-257 = test system: UACC-257
OVCAR-5 = test system: OVCAR-5
EKVX = test system: EKVX
KM12 = test system: KM12
OVCAR-3 = test system: OVCAR-3
SNB-75 = test system: SNB-75
LOX IMVI = test system: LOX IMVI
HCC 2998 = test system: HCC 2998
HOP-62 = test system: HOP-62
MCF7 = test system: MCF7

## O=C(O)c1cnc(-n2[nH]c3c(c2=O)CCCC3)[nH]c1=O
SK-MEL-2
  GI50: > 100 µM (inactive)
HOP-92
  GI50: 83.9 µM (inactive)
ACHN
  GI50: > 100 µM (inactive)
M14
  GI50: > 100 µM (inactive)
CAKI-1
  GI50: > 100 µM (inactive)
TK-10
  GI50: > 100 µM (inactive)
U-251
  GI50: > 100 µM (inactive)
DU-145
  GI50: > 100 µM (inactive)
SF-539
  GI50: > 100 µM (inactive)
Malme-3M
  GI50: > 100 µM (inactive)
NCI-H460
  GI50: > 100 µM (inactive)
786-0
  GI50: > 100 µM (inactive)
OVCAR-8
  GI50: > 100 µM (inactive)
COLO 205
  GI50: > 100 µM (inactive)
NCI-H522
  GI50: > 100 µM (inactive)
PC-3
  GI50: > 100 µM (inactive)
A498
  GI50: > 100 µM (inactive)
MDA-MB-231
  GI50: > 100 µM (inactive)
SR
  GI50: > 100 µM (inactive)
HL-60
  GI50: > 100 µM (inactive)
SK-MEL-28
  GI50: > 100 µM (inactive)
IGROV-1
  GI50: > 100 µM (inactive)
HT-29
  GI50: > 100 µM (inactive)
NCI-H23
  GI50: > 100 µM (inactive)
A549
  GI50: > 100 µM (inactive)
NCI/ADR-RES
  GI50: > 100 µM (inactive)
SF-268
  GI50: > 100 µM (inactive)
NCI-H226
  GI50: > 100 µM (inactive)
RPMI-8226
  GI50: > 100 µM (inactive)
SK-OV-3
  GI50: > 100 µM (inactive)
K562
  GI50: > 100 µM (inactive)
CCRF-CEM
  GI50: > 100 µM (inactive)
OVCAR-4
  GI50: > 100 µM (inactive)
SK-MEL-5
  GI50: > 100 µM (inactive)
HCT-15
  GI50: > 100 µM
MOLT-4
  GI50: > 100 µM (inactive)
UO-31
  GI50: > 100 µM (inactive)
UACC-62
  GI50: > 100 µM (inactive)
T47D
  GI50: > 100 µM (inactive)
SF-295
  GI50: > 100 µM (inactive)
MDA-N
  GI50: > 100 µM (inactive)
SW-620
  GI50: > 100 µM (inactive)
SNB-19
  GI50: > 100 µM (inactive)
Hs-578T
  GI50: > 100 µM (inactive)
BT-549
  GI50: > 100 µM (inactive)
SN12C
  GI50: > 100 µM (inactive)
HCT-116
  GI50: > 100 µM (inactive)
MDA-MB-435
  GI50: > 100 µM (inactive)
UACC-257
  GI50: > 100 µM (inactive)
OVCAR-5
  GI50: > 100 µM (inactive)
EKVX
  GI50: > 100 µM (inactive)
KM12
  GI50: > 100 µM (inactive)

## CC(C)=CCC[C@@H](C)C1=C(O)C(=O)C(C)=C(c2c(I)c(=O)n(C)c(=O)n2C)C1=O
SK-MEL-2
  GI50: > 100 µM (inactive)
HOP-92
  GI50: > 100 µM (inactive)
ACHN
  GI50: > 100 µM (inactive)
M14
  GI50: > 100 µM (inactive)
OVCAR-3
  GI50: > 100 µM (inactive)
CAKI-1
  GI50: > 100 µM (inactive)
TK-10
  GI50: > 100 µM (inactive)
DU-145
  GI50: > 100 µM (inactive)
SF-539
  GI50: > 100 µM (inactive)
Malme-3M
  GI50: > 100 µM (inactive)
NCI-H460
  GI50: > 100 µM (inactive)
786-0
  GI50: > 100 µM (inactive)
OVCAR-8
  GI50: > 100 µM (inactive)
COLO 205
  GI50: > 100 µM (inactive)
PC-3
  GI50: 49.7 µM (inactive)
A498
  GI50: > 100 µM (inactive)
SNB-75
  GI50: > 100 µM (inactive)
HL-60
  GI50: 74.6 µM (inactive)
SK-MEL-28
  GI50: > 100 µM (inactive)
IGROV-1
  GI50: 60.3 µM (inactive)
HT-29
  GI50: > 100 µM (inactive)
LOX IMVI
  GI50: > 100 µM (inactive)
NCI-H23
  GI50: > 100 µM (inactive)
A549
  GI50: 61 µM (inactive)
NCI/ADR-RES
  GI50: > 100 µM (inactive)
SF-268
  GI50: > 100 µM (inactive)
HCC 2998
  GI50: > 100 µM (inactive)
NCI-H226
  GI50: > 100 µM (inactive)
RPMI-8226
  GI50: 61 µM (inactive)
SK-OV-3
  GI50: > 100 µM (inactive)
K562
  GI50: 61.9 µM (inactive)
CCRF-CEM
  GI50: > 100 µM (inactive)
HOP-62
  GI50: > 100 µM (inactive)
OVCAR-4
  GI50: > 100 µM (inactive)
HCT-15
  GI50: > 100 µM
MOLT-4
  GI50: 36.8 µM (inactive)
UO-31
  GI50: > 100 µM (inactive)
T47D
  GI50: > 100 µM (inactive)
SF-295
  GI50: > 100 µM (inactive)
MDA-N
  GI50: > 100 µM (inactive)
SW-620
  GI50: > 100 µM (inactive)
SNB-19
  GI50: > 100 µM (inactive)
Hs-578T
  GI50: 76.6 µM (inactive)
BT-549
  GI50: > 100 µM (inactive)
SN12C
  GI50: > 100 µM (inactive)
HCT-116
  GI50: > 100 µM (inactive)
MDA-MB-435
  GI50: > 100 µM (inactive)
UACC-257
  GI50: > 100 µM (inactive)
OVCAR-5
  GI50: > 100 µM (inactive)
MCF7
  GI50: > 100 µM (inactive)
EKVX
  GI50: > 100 µM (inactive)
KM12
  GI50: > 100 µM (inactive)

## O=c1ccn(C2OC(CN(O)CCC3C(O)C(CO)OC3n3ccc(=O)[nH]c3=O)C(O)C2O)c(=O)[nH]1 (stereo unspecified)
SK-MEL-2
  GI50: > 100 µM (inactive)
HOP-92
  GI50: > 100 µM (inactive)
ACHN
  GI50: > 100 µM (inactive)
M14
  GI50: > 100 µM (inactive)
OVCAR-3
  GI50: > 100 µM (inactive)
CAKI-1
  GI50: > 100 µM (inactive)
TK-10
  GI50: > 100 µM (inactive)
U-251
  GI50: > 100 µM (inactive)
DU-145
  GI50: > 100 µM (inactive)
Malme-3M
  GI50: > 100 µM (inactive)
NCI-H460
  GI50: > 100 µM (inactive)
786-0
  GI50: > 100 µM (inactive)
OVCAR-8
  GI50: > 100 µM (inactive)
COLO 205
  GI50: > 100 µM (inactive)
PC-3
  GI50: > 100 µM (inactive)
A498
  GI50: > 100 µM (inactive)
MDA-MB-231
  GI50: > 100 µM (inactive)
SNB-75
  GI50: > 100 µM (inactive)
IGROV-1
  GI50: > 100 µM (inactive)
HT-29
  GI50: > 100 µM (inactive)
LOX IMVI
  GI50: > 100 µM (inactive)
NCI-H23
  GI50: > 100 µM (inactive)
A549
  GI50: > 100 µM (inactive)
NCI/ADR-RES
  GI50: > 100 µM (inactive)
SF-268
  GI50: > 100 µM (inactive)
HCC 2998
  GI50: > 100 µM (inactive)
NCI-H226
  GI50: > 100 µM (inactive)
RPMI-8226
  GI50: > 100 µM (inactive)
SK-OV-3
  GI50: > 100 µM (inactive)
K562
  GI50: > 100 µM (inactive)
HOP-62
  GI50: > 100 µM (inactive)
OVCAR-4
  GI50: > 100 µM (inactive)
HCT-15
  GI50: > 100 µM
UO-31
  GI50: > 100 µM (inactive)
T47D
  GI50: > 100 µM (inactive)
SF-295
  GI50: > 100 µM (inactive)
MDA-N
  GI50: > 100 µM (inactive)
SNB-19
  GI50: > 100 µM (inactive)
Hs-578T
  GI50: > 100 µM (inactive)
BT-549
  GI50: > 100 µM (inactive)
SN12C
  GI50: > 100 µM (inactive)
HCT-116
  GI50: > 100 µM (inactive)
MDA-MB-435
  GI50: > 100 µM (inactive)
OVCAR-5
  GI50: > 100 µM (inactive)
MCF7
  GI50: > 100 µM (inactive)
EKVX
  GI50: > 100 µM (inactive)
KM12
  GI50: > 100 µM (inactive)
